Source: patent US20240294465A1, “NOVEL ANTI-FIBROTIC DRUGS” (HELMHOLTZ ZENTRUM MUNCHEN - DEUTSCHES FORSCHUNGSZENTRUM FUR …, priority 2021, published 2024)
Entries after “also recorded” stand apart in the source; their conditions may differ.

Assays:
[1] = test system: cell shape, microtubules and actin of phLFs; assay: Fluorescence microscopy of cell morphology and cytoskeleton (α-Tubulin, phalloidin, calcein); assay type: cell-based, human
From the text: FIG. 14: Dose-response relationships of N23Ps, live imaging of ECM deposition and cell-morphology switch. (A) Structural formula for Tranilast and N23Ps (example 84 and example 85) indicating 2-butoxy-substitution at R1 and IC50 values. […] Cell nuclei in blue (HOECHST). Scale bar=500 μm. […] Cell nuclei were stained by Hoechst (blue). Scale bar=50 μm. (F) Confocal images of subconfluent phLFs+TGFβ1 stained for Hoechst (blue), calcein (green) and phalloidin (red) showing round cell morphologies after treatment with example 84 as well as extensive actin cytoskeletal rearrangements (red). […] Scale bar=500 μm. Data are presented as means t SEM. Differences between groups were evaluated with paired t-tests. * p<0.05. n=3 (three different patient phLFs).
FIG. 16: (A) Fluorescence wide-field microscopy images (10× objective in low magnification and resolution) of phLFs treated with 5 μM DMSO, 50 μM example 84 and 100 μM Tranilast, and stained for Hoechst (blue), α-Tubulin (green) and filamentous actin (red, Phalloidin). […] Scale bar=100 μm. (B) Fluorescence wide-field microscopy images (63× objective in high magnification and resolution) of phLFs treated with either 5 μM DMSO or 50 μM example 84, and stained for Hoechst (blue), a.-Tubulin (green) and filamentous actin (red, Phalloidin). […] Scale bar=[…]. iPSC=induced pluripotent stem cells. […] Scale bar=350 μm. […] Thus, the compounds of the present invention show similar effects like colchicine on microtubules (41). Therefore, the compounds of the present invention are also for use in the treatment of inflammatory diseases such as arthrolithiasis, familiar mediterranean fever and pericarditis amongst others by the inhibition of polymorphonuclear leukocyte and macrophage motility as well as intracellular vesicular transport mechanisms.
For standard immunofluorescence staining, 5000 phLFs were seeded into 96 well imaging plates with a flat bottom (Cat #353376, BD Biosciences). After incubation, cells were fixed with either 4% PFA for 30 min at 37° C. or 100% methanol for 2 min at −20° C. […]

[2] = test system: CXCL8/IL-8; assay: Human precision cut lung slices (PCLS) with fibrotic cocktail: IL-8 ELISA; assay type: cell-based; conditions: living human PCLS
Procedure: PCLS were prepared as described before (31, 32). Shortly, PCLS were prepared from tumor-free peri-tumor tissue. The lung tissue was inflated with 3% agarose solution and solidified at 4° C. Tissue blocks were cut in μm thick PCLS using a vibration microtome Hyrax V50 (Zeiss). PCLS were cultured in DMEM F-12 medium and treated with a profibrotic cocktail, as described before (31), or vehicle, as well as with small molecules or vehicles for 7 days. After culturing and treatments, supernatants were harvested. PCLS were […] washed in PBS and protein was extracted as previously described (33). Briefly, PCLS were pooled in an Eppendorf tube and lysed in 500 μl ice-cold RIPA buffer (50 mM Tris-CI pH 7.4, 150 mM NaCl, 1% NP40, 0.25% Na-deoxycholate) containing 1× Roche complete mini protease inhibitor cocktail (Roche, Cat. #11697498001). After an incubation of 2 hours rotating at 4° C., the lung slices were removed from the lysates and the protein content was measured.
Cells were scraped off the plastic dish directly into 200 μl ice-cold RIPA buffer containing 1× Roche complete mini protease inhibitor cocktail. […] CXCL/IL-8 concentrations were determined using Human IL-8/CXCL8 DuoSet ELISA (DY208-05) according to the manufacturer's protocol.

[3] = test system: phLFs; assay: Cytotoxicity assays (MTT, live/dead calcein, caspase 3/7); assay type: cell-based; conditions: confluent phLFs+TGFβ1
From the text: Viability/Cytotoxicity Assay Kit for Animal Live and Dead Cells was obtained from Biotium, Cat. No. 3002). CellEvent™ Caspase 3/7 Green Detection Reagent was acquired from Invitrogen, Cat. No. C10423. For MTT-assays, Thiazolyl Blue Tetrazolium was bought from SigmaAldrich (M5655-1G). All these kits and assays were used according to the manufacturer's instructions.

## CCCCOc1ccccc1NC(=O)/C=C/c1ccc(OC)c(OC)c1 [Example 84, (E)-N-(2-butoxyphenyl)-3-(3,4-dimethoxyphenyl)acrylamide]
[1]; b48: example 84 50 μM, Tranilast 100 μM
  cell morphology: significant changes in cell-shape and eccentricity towards round cells; also recorded: cell-shape switch towards round cell morphologies
[1]; example 84 50 μM
  actin filaments (Phalloidin): without affecting actin filaments
[1]; example 84 50 μM, Tranilast 100 μM
  microtubules (α-Tubulin staining): depolymerized, that is non-filamentous, microtubules
[2]
  CXCL8/IL-8 (ELISA): diminution of pro-fibrotic CXCL8/IL-8
[3]
  viability (calcein staining): proving viability
